Reference: ChEMBL document CHEMBL4837268, “Influence of Linker Attachment Points on the Stability and Neosubstrate Degradation of Cereblon Ligands” (ACS Med Chem Lett, 2021)
Active and inactive are the calls of the source. The calls are words filed in the database; no cut-off is given here.

Experiments:
[1] = target: T1, Cereblon/Ikaros (Homo sapiens) (UniProt Q96SW2+Q13422); experiment: Protac activity at CRBN/IKZF1 in human MM1.S cells assessed as protein levels at 1 uM measured after 72 hrs by Western blot analysis relative to control; assay type: cell-based
[2] = target: Protein cereblon/Cyclin-dependent kinase 4 (Homo sapiens) (UniProt P11802+Q96SW2); experiment: Protac activity at CRBN/CDK4 in human MM1.S cells assessed as protein levels at 1 uM measured after 72 hrs by Western blot analysis relative to control; assay type: cell-based
Sequence of Protein cereblon/Cyclin-dependent kinase 4 (Homo sapiens) (P11802 2-303 limits assumed): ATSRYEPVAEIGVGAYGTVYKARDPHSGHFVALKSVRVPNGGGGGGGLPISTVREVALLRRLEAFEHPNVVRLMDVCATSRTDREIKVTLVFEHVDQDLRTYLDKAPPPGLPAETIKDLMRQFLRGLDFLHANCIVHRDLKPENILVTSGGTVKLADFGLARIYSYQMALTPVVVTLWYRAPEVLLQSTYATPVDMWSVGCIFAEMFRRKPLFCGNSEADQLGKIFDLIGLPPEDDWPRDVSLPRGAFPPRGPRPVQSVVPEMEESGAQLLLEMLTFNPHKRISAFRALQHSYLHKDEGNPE
Sequence of Protein cereblon/Cyclin-dependent kinase 4 (Homo sapiens) (Q96SW2 whole entry partner): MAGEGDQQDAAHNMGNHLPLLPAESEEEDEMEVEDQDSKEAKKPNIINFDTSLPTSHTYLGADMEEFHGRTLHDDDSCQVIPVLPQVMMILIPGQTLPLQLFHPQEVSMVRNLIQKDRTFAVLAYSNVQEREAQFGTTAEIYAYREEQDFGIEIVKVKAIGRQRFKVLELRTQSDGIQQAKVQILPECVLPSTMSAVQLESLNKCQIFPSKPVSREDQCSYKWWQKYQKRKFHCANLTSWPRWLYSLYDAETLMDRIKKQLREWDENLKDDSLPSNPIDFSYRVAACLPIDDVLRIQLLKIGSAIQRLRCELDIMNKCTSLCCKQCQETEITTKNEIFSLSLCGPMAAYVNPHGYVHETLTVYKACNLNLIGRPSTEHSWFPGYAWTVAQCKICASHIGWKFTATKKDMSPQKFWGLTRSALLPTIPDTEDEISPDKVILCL

[3] = Protac activity at CRBN/IKZF3 in human MM1.S cells assessed as induction of IKZF3 degradation at 0.1 to 1 uM measured after 16 hrs by Western blotting analysis; settings: dose 0.1-1 µM
[4] = target: Protein cereblon/Zinc finger protein Aiolos (Homo sapiens) (UniProt Q96SW2+Q9UKT9); experiment: Protac activity at CRBN/IKZF3 in human MM1.S cells assessed as protein levels at 1 uM measured after 72 hrs by Western blot analysis relative to control; assay type: cell-based
Sequence of Protein cereblon/Zinc finger protein Aiolos (Homo sapiens) (Q96SW2 whole entry, looked up): as the sequence (Q96SW2 whole entry partner) above
Sequence of Protein cereblon/Zinc finger protein Aiolos (Homo sapiens) (Q9UKT9 whole entry, looked up): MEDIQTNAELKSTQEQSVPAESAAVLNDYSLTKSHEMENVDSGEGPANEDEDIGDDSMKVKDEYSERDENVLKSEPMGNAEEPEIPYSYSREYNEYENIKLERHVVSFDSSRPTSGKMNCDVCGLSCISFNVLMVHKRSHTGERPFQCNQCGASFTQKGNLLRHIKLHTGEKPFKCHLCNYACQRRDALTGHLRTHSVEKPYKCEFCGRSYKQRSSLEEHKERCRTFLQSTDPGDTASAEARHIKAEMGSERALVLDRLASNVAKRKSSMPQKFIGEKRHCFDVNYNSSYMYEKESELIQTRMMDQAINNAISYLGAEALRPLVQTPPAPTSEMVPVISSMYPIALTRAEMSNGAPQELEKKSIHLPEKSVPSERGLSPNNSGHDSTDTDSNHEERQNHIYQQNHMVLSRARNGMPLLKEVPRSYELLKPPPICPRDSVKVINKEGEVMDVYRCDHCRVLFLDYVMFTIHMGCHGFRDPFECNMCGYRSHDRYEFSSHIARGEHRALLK

[5] = Stability of the compound in acetonitrile/buffer mixture at pH 7.4 assessed as parent compound remaining measured after 24 hrs by HPLC analysis; assay type: physicochemical; settings: read-out: Stabilty
[6] = target: T1, Cereblon/Ikaros (Homo sapiens); experiment: Protac activity at CRBN/IKZF1 in human MM1.S cells assessed as induction of IKZF1 degradation at 1 uM incubated for 6 hrs relative to control; assay type: cell-based
[7] = physchem; settings: buffer, pH 7.4
Description: Lipophilicity, logD of the compound at pH 7.4 by HPLC analysis

[8] = Stability in human plasma assessed as half life measured up tp 120 mins by HPLC analysis; assay type: ADME, cell-free
[9] = system: MM1.S; experiment: Cytotoxicity against human MM1.S cells assessed as effect on cell viability at 0.1 to 10 uM incubated for 72 hrs by luminescence based analysis; assay type: functional; settings: dose 0.1-10 µM

Structure (SMILES)	remaining at 24 h [5] [%]	Activity [6] [%]	logD [7]	other results
CC(=O)c1c(C)c2cnc(Nc3ccc(N4CCN(CC(=O)NCCOCCOCCOCC(=O)Nc5cccc6c5CN(C5CCC(=O)NC5=O)C6=O)CC4)cn3)nc2n(C2CCCC2)c1=O (centres undefined)				Activity [1]: > 95%; Activity [2]: 56%; Activity [3]: inactive; Activity [4]: > 95%
O=C1CCC(N2C(=O)c3cccc(OCCOCCOCCOCc4ccccc4)c3C2=O)C(=O)N1 (centres undefined)	46	5	2.6	
O=C1CCC(N2Cc3cc(OCCOCCOCCOCc4ccccc4)ccc3C2=O)C(=O)N1 (centres undefined)	73	16	2.2	half-life [8]: > 2 h
O=C1CCC(N2C(=O)c3ccccc3C2=O)C(=O)N1CCOCCOCCOCc1ccccc1 (centres undefined)	19			
O=C(COCCOCCOCc1ccccc1)NCc1cccc2c1C(=O)N(C1CCC(=O)NC1=O)C2=O (centres undefined)	21	73	2	half-life [8]: > 2 h
O=C1c2cccc(OCCOCCOCCOCc3ccccc3)c2C(=O)N1C1CCCCC1	90			
O=C(COc1ccc2c(c1)C(=O)N(C1CCC(=O)NC1=O)C2=O)NCCOCCOCCOCc1ccccc1 (centres undefined)	15	0	2	
CC(=O)c1c(C)c2cnc(Nc3ccc(N4CCN(CC(=O)NCCOCCOCCOCCNC(=O)COc5cccc6c5C(=O)N(C5CCC(=O)NC5=O)C6=O)CC4)cn3)nc2n(C2CCCC2)c1=O (centres undefined)				Activity [1]: > 95%; Activity [2]: 66%; Activity [3]: inactive; Activity [4]: > 95%
O=C1NCCCC1N1C(=O)c2cccc(OCCOCCOCCOCc3ccccc3)c2C1=O (centres undefined)	99			
O=C1CCC(N2C(=O)c3ccc(OCCOCCOCCOCc4ccccc4)cc3C2=O)C(=O)N1 (centres undefined)	30	0	2.9	half-life [8]: > 2 h
O=C1CCC(N2C(=O)c3cccc(C#CCOCCOCCOCc4ccccc4)c3C2=O)C(=O)N1 (centres undefined)	6		3.2	
O=C(COCCOCCOCc1ccccc1)NCc1ccc2c(c1)C(=O)N(C1CCC(=O)NC1=O)C2=O (centres undefined)	16	0	1.8	
O=C1CCC(N2C(=O)c3ccc(C(=O)NCCOCCOCCOCc4ccccc4)cc3C2=O)C(=O)N1 (centres undefined)	1		1.9	
O=C1CCC(N2Cc3c(OCCOCCOCCOCc4ccccc4)cccc3C2=O)C(=O)N1 (centres undefined)	78	22		
O=C1CCC(N2C(=O)c3cccc(NCCOCCOCCOCc4ccccc4)c3C2=O)C(=O)N1 (centres undefined)	80	64	3.1	half-life [8]: > 2 h
CC(=O)c1c(C)c2cnc(Nc3ccc(N4CCN(CC(=O)NCCOCCOCCOCC(=O)NCc5cccc6c5C(=O)N(C5CCC(=O)NC5=O)C6=O)CC4)cn3)nc2n(C2CCCC2)c1=O (centres undefined)				Activity [1]: > 95%; Activity [2]: 68%; Activity [9]: Active; Activity [3]: Active; Activity [4]: > 95%
O=C1CCC(N2Cc3c(NCCOCCOCCOCc4ccccc4)cccc3C2=O)C(=O)N1 (centres undefined)	74	5	2.4	half-life [8]: > 2 h
O=C1CCC(N2Cc3cc(NC(=O)COCCOCCOCc4ccccc4)ccc3C2=O)C(=O)N1 (centres undefined)	73	6	1.8	
O=C1CCC(N2C(=O)c3ccc(NCCOCCOCCOCc4ccccc4)cc3C2=O)C(=O)N1 (centres undefined)	70	19	2.6	
O=C1CCC(N2Cc3cc(NCCOCCOCCOCc4ccccc4)ccc3C2=O)C(=O)N1 (centres undefined)	79	0	2.1	
O=C1CCC(N2C(=O)c3cccc(NC(=O)COCCOCCOCc4ccccc4)c3C2=O)C(=O)N1 (centres undefined)	15	14	2.6	half-life [8]: 1.97 h
O=C1CCC(N2C(=O)c3ccc(C#CCOCCOCCOCc4ccccc4)cc3C2=O)C(=O)N1 (centres undefined)	1		3.3	
O=C1CCC(N2C(=O)c3cccc(C(=O)NCCOCCOCCOCc4ccccc4)c3C2=O)C(=O)N1 (centres undefined)	3		1.9	
CC(=O)c1c(C)c2cnc(Nc3ccc(N4CCN(CC(=O)NCCOCCOCCOCCNc5cccc6c5C(=O)N(C5CCC(=O)NC5=O)C6=O)CC4)cn3)nc2n(C2CCCC2)c1=O (centres undefined)				Activity [1]: 2%; Activity [2]: 26%; Activity [9]: Active; Activity [4]: 2%
O=C(COc1cccc2c1C(=O)N(C1CCC(=O)NC1=O)C2=O)NCCOCCOCCOCc1ccccc1 (centres undefined)	17	0	2	
O=C1CCC(N2C(=O)c3ccc(NC(=O)COCCOCCOCc4ccccc4)cc3C2=O)C(=O)N1 (centres undefined)	11	1	2.3	
O=C(CNc1ccc2c(c1)C(=O)N(C1CCC(=O)NC1=O)C2=O)NCCOCCOCCOCc1ccccc1 (centres undefined)	56	6	1.8	
O=C(CNc1cccc2c1C(=O)N(C1CCC(=O)NC1=O)C2=O)NCCOCCOCCOCc1ccccc1 (centres undefined)	68	29	2.1	half-life [8]: > 2 h
O=C1CCC(N2Cc3c(NC(=O)COCCOCCOCc4ccccc4)cccc3C2=O)C(=O)N1 (centres undefined)	79	0	1.6	half-life [8]: 1.45 h
